How the values were obtained:
[1] = Dissolution study of capsule formulation (USP Type 1); assay type: physicochemical; conditions: 0.1 N hydrochloric acid; for % Dissolved: 100 rpm
Description: The dissolution rate of carvedilol dihydrogen phosphate monohydrate as a capsule formulation was compared with that of carvedilol phosphate hemihydrate similarly prepared.
The samples for the dissolution study were prepared as follows:
Carvedilol phosphate, 25.0 mg, was accurately weighed along with lactose and other fillers. The mix was filled inside a colorless gelatin capsule shell, size #2. Six such capsules were subjected to dissolution studies, each for the monohydrate and hemi-hydrate material.
The intrinsic solubility of the monohydrate form versus the hemihydrate form of carvedilol is done using the general guidelines for characterizing the dissolution rate as per the United States Pharmacopoeia.
The dissolution conditions were:
Medium: 0.1 N hydrochloric acid, 900 ml
Speed of rotations: 100 per minute.
Temp: 37 degree±0.05 degrees.
The percent dissolved: was determined by UV spectrophotometry at a wavelength of 280 nm.

[2] = Hydrate stability: drying at 110° C. and re-exposure to 75% relative humidity at 37° C.; assay type: physicochemical
Description: The carvedilol dihydrogen phosphate monohydrate prepared by the present processes is dried till constant weight for 4-10 hours at 40-45° C. under vacuum to obtain carvedilol dihydrogen phosphate monohydrate having bound water content in the range of 3.0-4.0% wt/wt; the theoretical moisture content for carvedilol dihydrogen phosphate monohydrate is 3.54% wt/wt. Further, the bound water content was removed by drying the material at 110° C. till the moisture content below 0.5%. The original moisture content was regained after about 10-15 hours when exposed to 75% relative humidity at 37° C. (in air).

[3] = 10 min, 25.0 mg capsule, 900 ml, 37 degree
[4] = 20 min, 25.0 mg capsule, 900 ml, 37 degree
[5] = 30 min, 25.0 mg capsule, 900 ml, 37 degree
[6] = 45 min, 25.0 mg capsule, 900 ml, 37 degree
[7] = 60 min, 25.0 mg capsule, 900 ml, 37 degree

Molecule: COc1ccccc1OCCNCC(O)COc1cccc2[nH]c3ccccc3c12.O=P(O)(O)O (centres unmarked) [Monohydrate form, 1-(9H-carbazol-4-yloxy)-3-[[2-(2-methoxyphenoxy)ethyl]amino]-propan-2-ol]
- Time to complete dissolution ([1]; 25.0 mg capsule, 900 ml, 37 degree): ≤ 90 min
- % Dissolved [1, 3]: 46.20%
- % Dissolved [1, 4]: 68.28%
- % Dissolved [1, 5]: 82.45%
- % Dissolved [1, 6]: 95.89%
- % Dissolved [1, 7]: 96.81%
- % Dissolved ([1]; 90 min, 25.0 mg capsule, 900 ml, 37 degree): 101.55%
- Rate of dissolution compared with hemihydrate form ([1]; capsule): faster rate of dissolution than the hemihydrate form
- Time to regain original moisture content ([2]; after drying at 110° C. to moisture below 0.5%, exposed to 75% relative humidity at 37° C. (in air)): 10 to 15 h
- Stability of hydrate form ([2]; drying at 110° C., then 75% relative humidity at 37° C. (in air)): stable and does not convert into the dihydrate or hemihydrate form

Molecule: Carvedilol Dihydrogen Phosphate Hemihydrate [Hemihydrate form, reference compound]
- % Dissolved [1, 3]: 45.95%
- % Dissolved [1, 4]: 63.75%
- % Dissolved [1, 5]: 68.43%
- % Dissolved [1, 6]: 75.99%
- % Dissolved [1, 7]: 82.68%
- % Dissolved ([1]; 90 min, 25.0 mg capsule, 900 ml, 37 degree, Phosphate Hemihydrate): 88.95%
- % Dissolved ([1]; 90 min, 25.0 mg capsule, 900 ml, 37 degree, listed as hemihydrate form, Phosphate Hemihydrate): less than 90%

From US7763645B2, “Carvedilol dihydrogen phosphate monohydrate” (Wanbury Limited, priority 2008, dated 2010)
